Molecular target: Photoreceptor-specific nuclear receptor (Homo sapiens) (UniProt Q9Y5X4)
Test: concentration-response of NR2E3 activators – cell-based, luminescence, luciferase reporter, dose response (AID 624394)

Sequence of Photoreceptor-specific nuclear receptor (Homo sapiens) (Q9Y5X4 whole entry, looked up): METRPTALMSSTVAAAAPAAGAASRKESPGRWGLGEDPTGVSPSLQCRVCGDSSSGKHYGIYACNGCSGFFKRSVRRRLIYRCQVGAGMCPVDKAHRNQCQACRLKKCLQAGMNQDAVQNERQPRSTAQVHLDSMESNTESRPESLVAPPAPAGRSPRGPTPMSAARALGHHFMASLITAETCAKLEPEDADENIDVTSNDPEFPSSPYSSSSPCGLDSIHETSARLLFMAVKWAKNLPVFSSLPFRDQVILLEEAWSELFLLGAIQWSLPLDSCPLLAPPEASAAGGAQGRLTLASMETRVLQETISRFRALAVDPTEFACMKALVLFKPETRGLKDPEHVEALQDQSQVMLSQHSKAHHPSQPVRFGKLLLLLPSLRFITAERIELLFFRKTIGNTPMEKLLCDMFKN

Question: For `CCOP(=O)(CCP(=O)(OCC)OCC)OCC.C[CH2][Sn]([Cl])([Cl])[CH2]C`, which IC50 is on record?
Answer: Its IC50 is 478 nM.

From PubChem BioAssay AID624394 (The Scripps Research Institute Molecular Screening Center, 2012)
